The record followed here is patent US20210308089A1, “METHODS OF TREATING AND/OR PREVENTING VIRAL INFECTIONS AND/OR DISEASES CAUSED BY VIRUSES IN A SUBJECT IN NEED THEREOF” (priority 2020, published 2021).

For series [1], the system named is symptomatic COVID-19 outpatients with positive SARS-CoV-2 test. The series is described as follows: VASCEPA-COVID-19: FLU-PRO symptom prevalence and scores (and correlation with hs-CRP). The series is classed as in vivo, human.
Series [2] shares this test system. Nature of the series: VASCEPA-COVID-19: adverse events. The series is classed as in vivo, human. An excerpt:
Safety monitoring was undertaken at each study visit in accordance with Health Canada regulations and local reporting guidelines. All serious, unexpected adverse drug reactions (ADRs) were reported to Health Canada in accordance with Division 5 of Part C of the Food and Drug Regulations.
An adverse event (AE) is defined as any untoward medical occurrence, including an exacerbation of a pre-existing condition, in a patient in a clinical investigation who received a pharmaceutical product.
The intensity of the AE should be judged based on the following: • a) Mild: Awareness of sign(s) or symptom(s) that is/are easily tolerated; • b) Moderate: Sufficient discomfort to cause interference with usual activity; or • c) Severe: Incapacitating or causing inability to work or to perform usual activities.

The mark [3] stands for this setting: n = 50, intention-to-treat, usual care 0.
[4] abbreviates: n = 50, intention-to-treat, usual care 6.

Take `CC/C=C\C/C=C\C/C=C\C/C=C\C/C=C\CCCC(=O)OCC` [icosapent ethyl, eicosapentaenoic acid ethyl ester]: the “Total FLU-PRO symptom prevalence reduced by” value in series [1] (14+3-day follow-up) was 52%. In series [1] (baseline to follow-up), the “Reduction in chest/respiratory symptoms (FLU-PRO prevalence)” value is recorded as 69%. For the same molecule, the “Change in mean FLU-PRO score, total domain” value in series [1] (baseline to follow-up, patients with non-zero treatment compliance) is reported as −0.16. In series [2] (VASCEPA-COVID-19), the “Discontinuations with the 8 g per day loading dose” value was “no discontinuations”. The Tolerability entry in series [2] (VASCEPA-COVID-19, 14 days) was “well tolerated”. The “Serious AEs or deaths” value in series [2] (VASCEPA-COVID-19 trial population) is reported as “No serious AEs or deaths occurred”. In addition, in series [2] (setting [3]), the “Mild adverse events: Gastrointestinal disorders, %” value was 8% and the “Moderate adverse events: Gastrointestinal disorders, %” value came out at 2%. Further, in series [2] (setting [4]), the “Moderate adverse events: Respiratory disorders, %” value is recorded as 2% and the “Total adverse events, %” value is listed as 12%.
